Data taken from patent publication US20260262643A1, “HERBICIDAL BENZOXAZINES” (FMC CORPORATION, priority 2022, published 2026).

Columns and labels:
barnyardgrass [1] = test: Test C preemergence; format: in vivo, Echinochloa crusgalli
Procedure, shortened: (§1)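 Seeds sown in loam soil–sand blend received a directed preemergence soil spray of test chemical in non-phytotoxic solvent with surfactant; postemergence plants (2–10 cm, one- to two-leaf stage) were sprayed with the same formulation. Greenhouse-held 10 days, then visually rated for injury versus untreated controls, 0 (no effect) to 100 (complete control).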

blackgrass [2] = test: Test C preemergence; format: in vivo, Alopecurus myosuroides
Procedure, shortened: as §1

corn [3] = test: Test C preemergence; format: in vivo, Zea mays
Procedure, shortened: as §1

green foxtail [4] = test: Test C preemergence; format: in vivo, Setaria viridis
Procedure, shortened: as §1

kochia [5] = test: Test C preemergence; format: in vivo, Bassia scoparia
Procedure, shortened: as §1

oat, wild [6] = test: Test C preemergence; format: in vivo, Avena fatua
Procedure, shortened: as §1

pigweed, palmer [7] = test: Test C preemergence; format: in vivo, Amaranthus palmeri
Procedure, shortened: as §1

ragweed [8] = test: Test C preemergence; format: in vivo, Ambrosia artemisiifolia
Procedure, shortened: as §1

ryegrass, Italian [9] = test: Test C preemergence; format: in vivo, Lolium multiflorum
Procedure, shortened: as §1

soybean [10] = test: Test C preemergence; format: in vivo, Glycine max
Procedure, shortened: as §1

wheat [11] = test: Test C preemergence; format: in vivo, Triticum aestivum
Procedure, shortened: as §1

barnyardgrass [12] = test: Test C postemergence; format: in vivo, Echinochloa crusgalli; conditions: 10 days, 0 to 100 scale (0 no effect, 100 complete control)
Procedure, shortened: as §1

blackgrass [13] = test: Test C postemergence; format: in vivo, Alopecurus myosuroides; conditions: 10 days, 0 to 100 scale (0 no effect, 100 complete control)
Procedure, shortened: as §1

corn [14] = test: Test C postemergence; format: in vivo, Zea mays; conditions: 10 days, 0 to 100 scale (0 no effect, 100 complete control)
Procedure, shortened: as §1

green foxtail [15] = test: Test C postemergence; format: in vivo, Setaria viridis; conditions: 10 days, 0 to 100 scale (0 no effect, 100 complete control)
Procedure, shortened: as §1

kochia [16] = test: Test C postemergence; format: in vivo, Bassia scoparia; conditions: 10 days, 0 to 100 scale (0 no effect, 100 complete control)
Procedure, shortened: as §1

oat, wild [17] = test: Test C postemergence; format: in vivo, Avena fatua; conditions: 10 days, 0 to 100 scale (0 no effect, 100 complete control)
Procedure, shortened: as §1

pigweed, palmer [18] = test: Test C postemergence; format: in vivo, Amaranthus palmeri; conditions: 10 days, 0 to 100 scale (0 no effect, 100 complete control)
Procedure, shortened: as §1

ragweed [19] = test: Test C postemergence; format: in vivo, Ambrosia artemisiifolia; conditions: 10 days, 0 to 100 scale (0 no effect, 100 complete control)
Procedure, shortened: as §1

ryegrass, Italian [20] = test: Test C postemergence; format: in vivo, Lolium multiflorum; conditions: 10 days, 0 to 100 scale (0 no effect, 100 complete control)
Procedure, shortened: as §1

soybean [21] = test: Test C postemergence; format: in vivo, Glycine max; conditions: 10 days, 0 to 100 scale (0 no effect, 100 complete control)
Procedure, shortened: as §1

wheat [22] = test: Test C postemergence; format: in vivo, Triticum aestivum; conditions: 10 days, 0 to 100 scale (0 no effect, 100 complete control)
Procedure, shortened: as §1

galium = test: Test C postemergence; format: in vivo, Galium aparine; conditions: 10 days, 0 to 100 scale (0 no effect, 100 complete control)
Procedure, shortened: as §1

horseweed = test: Test C postemergence; format: in vivo, Erigeron canadensis; conditions: 10 days, 0 to 100 scale (0 no effect, 100 complete control)
Procedure, shortened: as §1

barnyardgrass [23] = test: Test D flooded paddy test; format: in vivo, Echinochloa crus-galli; conditions: 250 g ai/ha, applied to paddy water, visual rating after 13 to 14 days, scale 0 to 100 (0 no effect, 100 complete control)
Procedure, shortened: (§2)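 2-leaf plants; flood 3 cm above soil; compound dosed into paddy water; greenhouse 13–14 d; visual rating vs controls, 0–100 (100 = complete control); dash = not tested.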

ducksalad = test: Test D flooded paddy test; format: in vivo, Heteranthera limosa; conditions: 250 g ai/ha, applied to paddy water, visual rating after 13 to 14 days, scale 0 to 100 (0 no effect, 100 complete control)
Procedure, shortened: as §2

rice = test: Test D flooded paddy test; format: in vivo, Oryza sativa; conditions: 250 g ai/ha, applied to paddy water, visual rating after 13 to 14 days, scale 0 to 100 (0 no effect, 100 complete control)
Procedure, shortened: as §2

sedge, umbrella = test: Test D flooded paddy test; format: in vivo, Cyperus difformis; conditions: 250 g ai/ha, applied to paddy water, visual rating after 13 to 14 days, scale 0 to 100 (0 no effect, 100 complete control)
Procedure, shortened: as §2

[24] = 500 g ai/ha, preemergence, 0 to 100 scale (0 no effect, 100 complete control)
[25] = Preemergence, 125 g ai/ha, 0 to 100 scale, 0 no effect, 100 complete control

CC(C)c1ncn(-c2ccc(OS(C)(=O)=O)c(C(=O)N3C[C@H](C)Oc4c(Cl)cccc43)c2)n1 [Compound 338]
Barnyardgrass plant response rating (barnyardgrass [1]; [24]): 100
Plant response rating, Barnyardgrass (barnyardgrass [1]; [25]): 60
Blackgrass plant response rating (blackgrass [2]; [24]): 80
Plant response rating, Blackgrass (blackgrass [2]; [25]): 20
Corn plant response rating (corn [3]; [24]): 50
Plant response rating, Corn (corn [3]; [25]): 10
Foxtail, Green plant response rating (green foxtail [4]; [24]): 100
Plant response rating, Foxtail, Green (green foxtail [4]; [25]): 90
Kochia plant response rating (kochia [5]; [24]): 100
Plant response rating, Kochia (kochia [5]; [25]): 60
Oat, Wild plant response rating (oat, wild [6]; [24]): 50
Plant response rating, Oat, Wild (oat, wild [6]; [25]): 30
Pigweed, Palmer plant response rating (pigweed, palmer [7]; [24]): 100
Plant response rating, Pigweed, Palmer (pigweed, palmer [7]; [25]): 100
Ragweed plant response rating (ragweed [8]; [24]): 0
Plant response rating, Ragweed (ragweed [8]; [25]): 0
Ryegrass, Italian plant response rating (ryegrass, Italian [9]; [24]): 100
Plant response rating, Ryegrass, Italian (ryegrass, Italian [9]; [25]): 90
Soybean plant response rating (soybean [10]; [24]): 80
Plant response rating, Soybean (soybean [10]; [25]): 30
Wheat plant response rating (wheat [11]; [24]): 20
Plant response rating, Wheat (wheat [11]; [25]): 0
Plant response rating, Barnyardgrass (barnyardgrass [12]; 500 g ai/ha, postemergence): 70
Plant response rating, Barnyardgrass (barnyardgrass [12]; Postemergence, 125 g ai/ha): 30
Plant response rating, Blackgrass (blackgrass [13]; 500 g ai/ha, postemergence): 70
Plant response rating, Blackgrass (blackgrass [13]; Postemergence, 125 g ai/ha): 40
Plant response rating, Corn (corn [14]; 500 g ai/ha, postemergence): 80
Plant response rating, Corn (corn [14]; Postemergence, 125 g ai/ha): 80
Plant response rating, Foxtail, Green (green foxtail [15]; 500 g ai/ha, postemergence): 70
Plant response rating, Foxtail, Green (green foxtail [15]; Postemergence, 125 g ai/ha): 30
Plant response rating, Kochia (kochia [16]; 500 g ai/ha, postemergence): 100
Plant response rating, Kochia (kochia [16]; Postemergence, 125 g ai/ha): 90
Plant response rating, Oat, Wild (oat, wild [17]; 500 g ai/ha, postemergence): 20
Plant response rating, Oat, Wild (oat, wild [17]; Postemergence, 125 g ai/ha): 20
Plant response rating, Pigweed, Palmer (pigweed, palmer [18]; 500 g ai/ha, postemergence): 100
Plant response rating, Pigweed, Palmer (pigweed, palmer [18]; Postemergence, 125 g ai/ha): 90
Plant response rating, Ragweed (ragweed [19]; 500 g ai/ha, postemergence): 40
Plant response rating, Ragweed (ragweed [19]; Postemergence, 125 g ai/ha): 30
Plant response rating, Ryegrass, Italian (ryegrass, Italian [20]; 500 g ai/ha, postemergence): 80
Plant response rating, Ryegrass, Italian (ryegrass, Italian [20]; Postemergence, 125 g ai/ha): 70
Plant response rating, Soybean (soybean [21]; 500 g ai/ha, postemergence): 100
Plant response rating, Soybean (soybean [21]; Postemergence, 125 g ai/ha): 100
Plant response rating, Wheat (wheat [22]; 500 g ai/ha, postemergence): 40
Plant response rating, Wheat (wheat [22]; Postemergence, 125 g ai/ha): 20
Plant response rating, Galium (galium; 500 g ai/ha, postemergence): 100
Plant response rating, Galium (galium; Postemergence, 125 g ai/ha): 100
Plant response rating, Horseweed (horseweed; 500 g ai/ha, postemergence): 20
Plant response rating, Horseweed (horseweed; Postemergence, 125 g ai/ha): 10
Plant response rating, Barnyardgrass (Flood) (barnyardgrass [23]): 10
Plant response rating, Ducksalad (Flood) (ducksalad): 40
Plant response rating, Rice (Flood) (rice): 10
Plant response rating, Sedge, Umbrella (Flood) (sedge, umbrella): 45
